These results are taken from patent US5302591A, “Benzodiazepine derivatives” (Merck Sharpe & Dohme Ltd., priority 1992, dated 1994).

One assay has as its target T1, CCK receptor (pancreas) (Rattus norvegicus, UniProt P30551).
T1 construct: The whole pancreas was dissected free of fat tissue and was homogenized; from tissue; host or cells: rat whole pancreas membranes
T1 sequence (P30551 1-444): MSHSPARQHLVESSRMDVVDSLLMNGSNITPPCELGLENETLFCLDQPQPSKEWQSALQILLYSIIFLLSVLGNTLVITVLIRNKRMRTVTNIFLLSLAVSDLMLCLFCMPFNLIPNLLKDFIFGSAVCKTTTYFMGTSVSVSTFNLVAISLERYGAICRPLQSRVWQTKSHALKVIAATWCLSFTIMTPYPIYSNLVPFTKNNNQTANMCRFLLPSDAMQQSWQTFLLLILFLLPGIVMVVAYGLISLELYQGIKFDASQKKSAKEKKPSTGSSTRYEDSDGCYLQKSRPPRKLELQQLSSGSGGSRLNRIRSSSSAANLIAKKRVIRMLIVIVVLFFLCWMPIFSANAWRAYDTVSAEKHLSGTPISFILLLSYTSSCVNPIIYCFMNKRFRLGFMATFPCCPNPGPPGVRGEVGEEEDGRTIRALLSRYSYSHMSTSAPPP
Kind of assay: CCK Receptor Binding (Pancreas), inhibition of 125I-CCK-8 binding. Set-up: species or system rat (male Sprague-Dawley). Conditions: rat pancreas membranes, 50 pM 125I-CCK-8, pH 6.5, 25° C., 2 hours. The protocol:
1. CCK Receptor Binding (Pancreas)
CCK-8 sulphated was radiolabelled with ^125 I-Bolton Hunter reagent (2000 Ci/mmole). Receptor binding was performed according to Chang and Lotti (Proc. Natl. Acad. Sci. 83, 4923-4926, 1986) with minor modifications.
Male Sprague-Dawley rats (150-200 g) were sacrificed by decapitation. The whole pancreas was dissected free of fat tissue and was homogenized in 25 volumes of ice-cold 10 mM N-2-hydroxyethyl-piperazine-N'-2-ethane sulphonic acid (HEPES) buffer with 0.1% soya bean trypsin inhibitor (pH 7.4 at 25° C.) with a Kinematica Polytron. The homogenates were centrifuged at 47,800 g for 10 min. Pellets were resuspended in 10 volumes of binding assay buffer (20 mM (HEPES)), 1 mM ethylene glycol-bis-(β-aminoethylether-N,N'-tetraacetic acid) (EGTA), 5 mM MgCl2, 150 mM NaCl, bacitracin 0.25 mg/ml, soya bean trypsin inhibitor 0.1 mg/ml, and bovine serum albumin 2 mg/ml pH 6.5 at 25° C.) using a Teflon (trademark) homogenizer, 15 strokes at 500 rpm. The homogenate was further diluted in binding assay buffer to give a final concentration of 0.5 mg original wet weight/1 ml buffer. […] The radioactivity on the filters was counted with a LKB gamma counter. […]

Another assay concerns the target T2, CCK receptor (brain) (Cavia porcellus, UniProt H0VZC5).
T2 construct: the cortex was removed and homogenized in 25 mL ice-cold 0.32M sucrose; from tissue; host or cells: guinea pig brain cortex P2 membranes
Briefly: CCK Receptor Binding (Brain), inhibition of 125I-CCK-8 binding. Set-up: species or system guinea pig (male Hartley). Conditions: guinea pig cortex membranes, 50 pM 125I-CCK-8, pH 6.5, 25° C., 2 hours. On the procedure:
2. CCK Receptor Binding (Brain)
CCK-8 sulphated was radiolabelled and the binding was performed according to the description for the pancreas method with minor modifications.
Male Hartley guinea pigs (300-500 g) were sacrificed by decapitation and the cortex was removed and homogenized in 25 mL ice-cold 0.32M sucrose. The homogenates were centrifuged at 1000 g for 10 minutes and the resulting supernatant was recentrifuged at 20,000 g for 20 minutes. The P2 pellet was resuspended in binding assay buffer (20 mM HEPES, 5 mM MgCl2, 0.25 mg/ml bacitracin, 1 mM EGTA pH 6.5 at 25° C.), using a Teflon (trademark) homogenizer (5 strokes at 500 rpm) to give a final concentration of 10 mg original wet weight/1.2 ml buffer. For the binding assay, 50 μl of buffer (for total binding) or unlabelled CCK-8 sulphated to give a final concentration of 1 μM (for nonspecific binding) or the compounds of Formula I (for determination of inhibition of ^125 I-CCK-8 binding) and 50 μl of 500 pM ^125 I-CCK-8 (i.e. final concentration of 50 pM) were added to 400 μl of the membrane suspensions in microfuge tubes. All assays were run in duplicate. […] The radioactivity on the filters was counted with a LKB gamma counter. […]

T2 sequence (H0VZC5 entry or part of it): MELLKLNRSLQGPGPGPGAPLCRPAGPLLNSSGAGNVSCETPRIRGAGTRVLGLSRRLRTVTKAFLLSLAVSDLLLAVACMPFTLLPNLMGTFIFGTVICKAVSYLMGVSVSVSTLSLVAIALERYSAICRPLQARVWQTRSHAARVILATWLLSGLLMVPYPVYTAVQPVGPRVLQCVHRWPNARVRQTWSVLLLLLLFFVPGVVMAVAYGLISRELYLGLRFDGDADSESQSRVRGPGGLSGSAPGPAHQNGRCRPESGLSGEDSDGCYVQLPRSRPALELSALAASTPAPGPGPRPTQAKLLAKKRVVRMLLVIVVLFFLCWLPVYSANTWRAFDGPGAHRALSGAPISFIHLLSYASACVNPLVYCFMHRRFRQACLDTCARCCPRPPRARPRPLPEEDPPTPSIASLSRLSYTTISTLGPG

As to `CN1C(=O)C(NC(=O)Nc2cccc(C(=O)NS(=O)(=O)c3ccccc3)c2)N=C(c2ccncc2)c2ccccc21` (racemic) [Example 1, N-[3(R,S)-2,3-Dihydro-1-methyl-2-oxo-5-(pyridin-4-yl)-1H-1,4-benzodiazepin-3-yl]-N'-[3-(phenylsulphonylaminocarbonyl)phenyl]urea], the results for the IC50 on CCK receptor (pancreas) and on CCK receptor (brain) were 790 nM and 130 nM, respectively.

Consider `CC(C)S(=O)(=O)NC(=O)c1cccc(NC(=O)NC2N=C(c3ccncc3)c3ccccc3N(C)C2=O)c1` (racemic) [Example 2, N-[3(R,S)-2,3-Dihydro-1-methyl-2-oxo-5-(pyridin-4-yl)-1H-1,4-benzodiazepin-3-yl)-N'-[3-(isopropylsulphonylaminocarbonyl)phenyl]urea], for which the concentration for half-maximal inhibition (IC50) on CCK receptor (pancreas) amounted to 1630 nM; at CCK receptor (brain) it was 300 nM.
